Literature values, collected in patent publication US8680270B2, “Metallo-oxidoreductase inhibitors using metal binding moieties in combination with targeting moieties” (Viamet Pharmaceuticals, Inc., priority 2006, dated 2014).
Read-outs that look alike come from different tables or passages of the source.

How the values were obtained:
[1] = system: androgen-dependent Dunning-H tumor; details: 120 mg/100 gm food, equivalent to 100 mg/kg per day
[2] = system: androgen-independent, anaplastic AT-6 tumors; details: 120 mg/100 gm food, equivalent to 100 mg/kg per day
Plasmodium falciparum [3] = system: Plasmodium falciparum
Plasmodium falciparum [4] = system: Plasmodium falciparum; remark: listed apart in the source
HO (heme oxygenase) = system: HO (heme oxygenase); set-up: dose or concentration left out as unconfirmed; details: broken cell preparations
sGC = molecular target: T1, sGC (Homo sapiens, UniProt Q02153); set-up: dose or concentration left out as unconfirmed; details: broken cell preparations
T1 sequence (Q02153 1-619): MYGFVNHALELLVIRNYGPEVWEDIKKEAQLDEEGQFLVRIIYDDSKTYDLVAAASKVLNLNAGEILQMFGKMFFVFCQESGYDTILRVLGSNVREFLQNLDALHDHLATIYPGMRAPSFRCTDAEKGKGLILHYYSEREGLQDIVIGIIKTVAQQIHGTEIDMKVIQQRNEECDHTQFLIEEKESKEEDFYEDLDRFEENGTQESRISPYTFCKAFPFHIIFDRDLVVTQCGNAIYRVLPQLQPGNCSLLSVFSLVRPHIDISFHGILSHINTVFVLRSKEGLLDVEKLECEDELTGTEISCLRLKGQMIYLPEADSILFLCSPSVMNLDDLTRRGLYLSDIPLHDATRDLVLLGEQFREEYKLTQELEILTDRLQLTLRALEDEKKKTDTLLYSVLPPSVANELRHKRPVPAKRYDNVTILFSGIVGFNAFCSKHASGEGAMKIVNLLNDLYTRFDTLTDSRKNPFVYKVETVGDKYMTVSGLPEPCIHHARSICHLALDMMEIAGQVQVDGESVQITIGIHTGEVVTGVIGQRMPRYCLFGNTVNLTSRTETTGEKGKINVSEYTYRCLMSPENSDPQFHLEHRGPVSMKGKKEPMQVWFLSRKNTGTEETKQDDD
T1 sequence (Q02108 1-690 partner): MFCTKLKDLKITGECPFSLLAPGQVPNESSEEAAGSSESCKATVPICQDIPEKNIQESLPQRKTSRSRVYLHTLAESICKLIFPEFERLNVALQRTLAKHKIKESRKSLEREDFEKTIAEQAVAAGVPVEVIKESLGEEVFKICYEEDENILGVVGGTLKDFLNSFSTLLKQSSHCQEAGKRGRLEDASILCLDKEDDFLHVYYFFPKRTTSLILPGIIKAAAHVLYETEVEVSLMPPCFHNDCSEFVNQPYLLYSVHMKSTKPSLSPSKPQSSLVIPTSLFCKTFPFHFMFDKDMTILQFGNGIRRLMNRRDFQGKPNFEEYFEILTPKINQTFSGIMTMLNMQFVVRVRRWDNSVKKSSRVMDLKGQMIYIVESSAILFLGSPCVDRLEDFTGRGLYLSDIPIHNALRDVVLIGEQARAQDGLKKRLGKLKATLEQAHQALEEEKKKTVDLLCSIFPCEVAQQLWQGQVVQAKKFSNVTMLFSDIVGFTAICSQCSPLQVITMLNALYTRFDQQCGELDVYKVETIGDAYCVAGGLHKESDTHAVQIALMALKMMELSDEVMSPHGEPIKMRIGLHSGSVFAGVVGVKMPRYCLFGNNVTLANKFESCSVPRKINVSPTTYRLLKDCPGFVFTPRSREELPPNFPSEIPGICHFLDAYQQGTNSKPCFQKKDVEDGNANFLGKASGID

NOS = system: NOS; set-up: dose or concentration left out as unconfirmed; details: broken cell preparations

Clc1cccc(C(c2ccc3[nH]cnc3c2)n2ccnc2)c1 (stereo not shown) [Liarozole]
Median tumor volume decrease [1]: 60% | Reduction of tumor growth [2]: −73%

O=CN(O)CCCP(=O)(O)O [fosmidomycin]
Subjects cured on day 28 (Plasmodium falciparum [3]; Gabon, seven out of nine subjects): 78% | Subjects cured on day 28 (Plasmodium falciparum [3]; Thailand, two out of nine subjects): 22% | Clinical and parasitological cure on day 7 (primary end point) (Plasmodium falciparum [3]; oral 1,200 mg every 8 h for 7 days): All subjects were clinically and parasitologically cured | Tolerability (Plasmodium falciparum [3]; oral 1,200 mg every 8 h for 7 days, mild gastrointestinal side effects in five subjects): well tolerated | Cure rate by day 14 (Plasmodium falciparum [4]; 1.2 g every 8 h for 3 days, six of ten): 60% | Cure rate by day 14 (Plasmodium falciparum [4]; 1.2 g every 8 h for 4 days, seven of eight): 88% | Cure rate by day 14 (Plasmodium falciparum [4]; 1.2 g every 8 h for 5 days, eight of nine): 89% | Tolerability (Plasmodium falciparum [4]; all treatment regimens, 1.2 g every 8 h for 5, 4 or 3 days): well tolerated

chromium mesoporphyrin IX [CrMP]
Inhibition of HO (HO (heme oxygenase)): 90% | Effect on sGC (sGC): little or no effect | Effect on NOS (NOS): little or no effect
